Laboratory results published in US20250221936A1, “ENGINEERED HEMICHANNELS, ENGINEERED VESICLES, AND USES THEREOF” (VIRGINIA TECH INTELLECTUAL PROPERTIES, INC., priority 2018, published 2025).

Experiments:
Cx43 CT-KK/QQ = target: T1, Cx43 CT-KK/QQ (Rattus norvegicus, UniProt P08050, K345Q/K346Q); test: Surface plasmon resonance, Cx43 CT-KK/QQ analyte; format: binding; details: biotin-peptide immobilized on streptavidin chip
T1 construct: pGEX-6-P2 Cx43 CT amino acids 255-382; GST (N, cleaved yes); made in house; host or cells: E. coli BL21
T1 sequence (P08050 255-382 K345Q/K346Q): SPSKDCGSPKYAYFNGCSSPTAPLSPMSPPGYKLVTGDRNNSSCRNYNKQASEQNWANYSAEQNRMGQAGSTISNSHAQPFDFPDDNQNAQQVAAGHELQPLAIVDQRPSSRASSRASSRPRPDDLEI
Excerpt: Peptides were synthesized and quality checked for fidelity and purity using High Performance Liquid Chromatography and mass spectrometry (LifeTein, Hillsborough, NJ). Biotinylated peptides were designed for surface plasmon resonance experiments. Glutathione-S-Transferase (GST) fusion protein constructs composed of the Cx43-CT (pGEX-6-P2 Cx43 CT amino acids 255-382), ZO-1 PDZ1, PDZ2 and PDZ3 were isolated and purified from isopropyl-b-D-thiogalactoside (IPTG)-induced BL21 bacteria using standard procedures, described in references 13, 14, 20. The pGEX6p2-Cx43 CT plasmid was obtained from Prof. Paul L. Sorgen (University of Nebraska Medical Center, USA). Cx43 CT mutant (Cx43 CT-KK/QQ; amino acids Lys345 Lys346 to Gln 345 Gln 346) was developed by site-directed mutagenesis of the pGEX6p2-Cx43 CT plasmid (Agilent technologies, QuikChange II Site-Directed Mutagenesis Kit). The mutation was verified by sequencing. For surface plasmon resonance experiments, the GST was removed using PreScission protease, yielding Cx43 CT protein (wild-type or mutant).
Efficacy of the interaction of each alpha CT1 variant with Cx43 CT or Cx43 CT-KK/QQ was tested using surface plasmon resonance (SPR) as described previously 20. In brief, SPR experiments were performed using a Biacore T200 (GE Healthcare). Equal amounts (response units/RU) of biotin-alpha CT1 variants were immobilized on each flow cell of a streptavidin-coated sensor chip (Biacore Inc) using immobilization buffer (in mM: 10 HEPES, 1 EDTA, 100 NaCl, 0.005% Tween-20) at pH 7.4. Measurements with wild-type (wt) Cx43 CT and mutant Cx43 CT-KK/QQ analytes were done in running buffer (in mM: 10 HEPES, 100 NaCl, pH 7.4) at a flow rate of 30 μl/min. Binding of analytes were verified at different concentrations, in random order (injection volume 120 μl). Interacting proteins were then unbound by injection of […] regeneration buffer (50 mM NaOH and 1 M NaCl) at a flow rate of 10 μl/min. Background levels were obtained from a reference cell containing a biotin-control peptide in which the reversed sequence of the last 9 amino acids of Cx43 was fused to biotin-antennapedia. The RU values obtained with biotin-control peptide were subtracted from the RU values obtained with the different biotin-alphaCT1 variants (wild-type or mutant) to generate the different response curves.

[1] = test system: Cx43 S368 phosphorylation; test: Western blot of Cx43-pS368 in peptide-infused LV; set-up: species or system mouse; details: peptide infused 20 minutes; relative to vehicle control
Description: Protein samples from all related experiments (PKC and EDC cross-linking assays and Westerns on heart lysates) were processed in lithium dodecyl sulfate sample loading buffer (Bio-Rad, 1610737 CA), heated at 95° C. for 5 minutes. Samples from PKC and cross-linking assays were loaded on 18% Tris-Glycine Stain-Free gels (Bio-Rad, 5678073 CA); samples from heart lysates were loaded on 10% Tris-Glycine Stain-Free el (Bio-Rad: 5678033 CA), resolved by SDS-PAGE, transferred to PVDF FL membrane on a Turbo Transfer System (Bio-Rad, 1704155 CA). alpha CT1 eluted from cross-linking reactions was detected on blots against biotin with HRP-NeutrAvidin (ThermoFisher, 31001, MA). Signals were detected by HR-based chemiluminescence (ThermoFisher, 34095, MA) and exposed to ECL Chemidoc (Bio-Rad, 1708280 CA) and digitized using Image Lab software (Bio-Rad, 1709692 CA). Detailed methods have also been previously described^11, 13, 14 Surface Plasmon Resonance
Male, 3-month-old, body weight 25±5 g C57BL/6 mice were used for this study and obtained from Charles River. Animals were randomly assigned to experimental groups and Left ventricular (LV) function was measured and myocardial ischemia-reperfusion injury (I/R) was induced as previously described^23. Briefly, 15 minutes after the injection of heparin at a dose of 200U/10 g body weight, the mouse was anesthetized by inhalation of isoflurane vapor and subjected to cervical dislocation upon the cessation of respiration. Thoracotomy was immediately performed and the heart excised. The heart was arrested in ice-cold Krebs-Henseleit (KH) buffer (in mM: 25 NaHCO3, 0.5 EDTA, 5.3 KCl, 1.2 MgSO4, 0.5 pyruvate, 118 NaCl, 10 glucose, 2.5 CaCl2). The aorta was isolated and cannulated in a Langendorff perfusion system. The heart was then perfused at a constant pressure of 75 mmHg with KH buffer, which was continually bubbled with 5% CO2/95% O2 at 37° C. Effluent from the Thebesian veins was drained by a thin polyethylene tube (PE-10) pierced through the apex of the LV. […] After a 30-minute stabilization period, a balloon volume (BV) generating an LV end-diastolic-pressure (EDP) of 0 mmHg, was determined for the heart. The BV was then increased stepwise up through 1, 2, 5, 8, 10, 12, 15, 18, 20, 25, 30 μl increments of 1-5 μl and contractile performance were recorded for 10 seconds at each step. […] Data was recorded and analyzed using PowerLab 4/35 (ADInstruments, PL3504, CO) and LabChart V7 (ADInstruments, CO). […] Baseline function (determined by EDP at about 8-10 mmHg) was recorded for 5 minutes. […] BV was retaken through the stepwise sequence of 1-5 μl increments between 1 and 30 μl, with contractile performance again being recorded for 10 seconds at each step. Cardiac LV function was recorded throughout the procedure. […]

Sequence	SPR binding to Cx43 CT-KK/QQ (Cx43 CT-KK/QQ)	Cx43 pS368 in LV samples [1]
RQPKIWFPNRRKPWKK RPRPAALAI (RQPKIWFPNRRKPWKKRPRPAALAI) [M1 AALAI]	unable mediate interactions	no propensity to upregulate S368 phosphorylation
RQPKIWFPNRRKPWKKRPRPDDLAI [M3 DDLAI]	unable mediate interactions	no propensity to upregulate S368 phosphorylation
RQPKIWFPNRRKPWKKRPRPDDLE [alpha CT1-I]	–	significant increases in phosphorylation
RQPKIWFPNRRKPWKKRPRPDDLEI [alpha CT1]	unable mediate interactions	significant increases in phosphorylation
